{"source": "patent US20230172951A1", "about": "“METHODS OF USING BILE ACIDS TO TREAT VIRAL INFECTIONS” (HOFFMAN TECHNOLOGIES LLC, priority 2020, published 2023)", "key": {"[1]": {"system": "SARS-CoV-2 (USA-WA1/2020 strain)", "assay": "SARS-CoV-2 neutralization assay in Vero E6 cells, cytopathic effect (CPE) read-out", "format": "cell-based", "conditions": "for Inhibition of SARS-CoV-2 infection of Vero cells / Day 2 CPE / Day 4 CPE: 1.25 mg/mL; for Inhibition of SARS-CoV-2 infection of Vero cells: dosed simultaneously with viral addition to cells; for EC50 (inhibition of SARS-CoV-2 CPE): Vero E6 cells, calculated by the Quest Graph EC50 Calculator (AAT Bioquest); for Day 2 CPE / Day 4 CPE: five replicate wells; for Day 2 CPE: Day 2 post-infection; for Day 4 CPE: Day 4 post-infection"}, "Vero E6 cells": {"system": "Vero E6 cells", "assay": "Cytotoxicity / cell growth observed in Vero E6 cells during the neutralization assay", "conditions": "for Cell growth: 1.25 mg/mL, also seen in corresponding DMSO controls (1.25%), attributed to DMSO"}, "[2]": {"assay": "Solubility on dilution of DMSO stock in DMEM/F12", "format": "physicochemical", "protocol": "The Vero E6 cells were plated on 96-well plates the day before the assay and were allowed to grow to ˜60% confluence. All three drugs were reconstituted with DMSO to a concentration of 100 mg/mL. That was further diluted in DMEM/F12 to 5 mg/mL. […] A 1:2 serial dilution series was performed to examine final concentrations of 1.25, 0.625, 0.31, 0.156, 0.078, 0.039, and 0.02 mg/mL. DMSO controls were used to account for DMSO concentrations at 1.25, 0.625, 0.31, 0.156, 0.078, 0.039, and 0.02%. Dilutions were pre-incubated with virus for 60 minutes prior to addition to cells. This was to allow drug to interact with virus prior to virus infection. Additionally, drug and virus were added to Vero cells simultaneously. 45 minutes after virus addition, DMEM/F12+FBS was added to feed the cells. The assay was executed in five replicates for each condition. Test wells received approximately 100 TCID50/well of SARS-CoV-2. Growth of the Vero E6 cells was observed and monitored for cytopathic effects (CPE) associated with successful virus replication. All wells were examined on Day 2 and Day 4 post-infection."}, "SARS-CoV-2 / COVID-19": {"system": "SARS-CoV-2 / COVID-19", "format": "in vivo", "conditions": "500 mg capsule, twice per day"}, "COVID-19": {"system": "COVID-19", "assay": "Subject presenting with COVID-19 symptoms taking TUDCA capsules (Example 3)", "format": "in vivo", "conditions": "500 mg capsule, twice per day; after several days", "protocol": "A subject presenting with COVID-19 symptoms was instructed to administer one gelatin capsule of TUDCA (500 mg, powder in capsule), twice per day."}, "[3]": {"conditions": "pre-incubation with virus for 60 minutes"}, "[4]": {"conditions": "simultaneous addition of drug and virus"}}, "data": [{"smiles": "C[C@H](CCC(=O)NCCS(=O)(=O)[O-])[C@H]1CC[C@H]2[C@@H]3[C@@H](O)C[C@@H]4C[C@H](O)CC[C@]4(C)[C@H]3CC[C@]12C.[Na+]", "note": "[Sodium TUDCA]", "values": [{"measurement": "Inhibition of SARS-CoV-2 infection of Vero cells", "setting": "[1]", "value": "inhibit SARS-CoV-2 infection of Vero cells"}, {"measurement": "EC50 (inhibition of SARS-CoV-2 CPE)", "setting": "[1]", "value": 980, "unit": "µg/mL"}, {"measurement": "Day 2 CPE", "setting": "[1]; [3]", "value": "no CPE"}, {"measurement": "Day 2 CPE", "setting": "[1]; [4]", "value": "no CPE"}, {"measurement": "Day 4 CPE", "setting": "[1]; [4]", "value": "no CPE"}, {"measurement": "Cell growth", "setting": "Vero E6 cells", "value": "Slowed cell growth"}]}, {"smiles": "CC(CCC(=O)NCCS(=O)(=O)O)C1CCC2C3C(O)CC4CC(O)CCC4(C)C3CCC12C", "note": "(stereo not drawn) [TUDCA acid, tauroursodeoxycholic acid]", "values": [{"measurement": "Inhibition of SARS-CoV-2 infection of Vero cells", "setting": "[1]", "value": "inhibit SARS-CoV-2 infection of Vero cells"}, {"measurement": "EC50 (inhibition of SARS-CoV-2 CPE)", "setting": "[1]", "value": 980, "unit": "µg/mL"}, {"measurement": "Day 2 CPE", "setting": "[1]; [3]", "value": "no CPE"}, {"measurement": "Day 2 CPE", "setting": "[1]; [4]", "value": "no CPE"}, {"measurement": "Day 4 CPE", "setting": "[1]; [4]", "value": "no CPE"}, {"measurement": "Cell growth", "setting": "Vero E6 cells", "value": "Slowed cell growth"}]}, {"smiles": "CC(CCC(=O)NCCS(=O)(=O)O)C1CCC2C3C(O)CC4CC(O)CCC4(C)C3CCC12C", "note": "(stereo not drawn) [TUDCA, tauroursodeoxycholic acid]", "values": [{"measurement": "Solubility in DMEM/F12", "setting": "[2]; 100 mg/mL DMSO stock diluted in DMEM/F12 to 5 mg/mL", "value": "came out of solution"}, {"measurement": "Solubility in DMEM/F12", "setting": "[2]; next 1:2 dilution after 5 mg/mL", "value": "soluble"}, {"measurement": "Cytotoxicity in wells", "setting": "Vero E6 cells; 1.25 and 0.625 mg/mL final concentrations", "value": "Cytotoxicity was seen"}, {"measurement": "Health outcome of member who tested positive for SARS-CoV-2 with COVID-19 symptoms", "setting": "SARS-CoV-2 / COVID-19; oral, one member", "value": "health returned to normal"}, {"measurement": "COVID-19 symptoms in exposed members (prophylaxis)", "setting": "SARS-CoV-2 / COVID-19; twelve members, repeated exposure to COVID-19 patients over at least 3 months", "value": "None of the other twelve members have presented with COVID-19 symptoms"}, {"measurement": "Health outcome of subject with COVID-19 symptoms", "setting": "COVID-19", "value": "health returned to normal"}]}]}
